Measurements as given in ChEMBL document CHEMBL1201862, “PubChem BioAssay data set” (2004).
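Following 48 hours of exposure in 96-well plates, responses at five concentrations were used to interpolate endpoints linearly. GI50 is the concentration that inhibits growth by half.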 Calls of active or inactive are those of the source. Cut-off read from the data, not from the text of the source: active = GI50 up to about 1.1 µM and inactive = higher.

Legend:
Experiment in all cases: NCI anticancer screen, dose series, 48 h
[1] = system: A498
[2] = system: A549
[3] = system: CAKI-1
[4] = system: CCRF-CEM
[5] = system: COLO 205
[6] = system: DLD-1
[7] = system: DMS-114
[8] = system: DMS-273
[9] = system: EKVX
[10] = system: HCC 2998
[11] = system: HCT-116
[12] = system: HCT-15
[13] = system: HL-60
[14] = system: HOP-18
[15] = system: HOP-62
[16] = system: HOP-92
[17] = system: HT-29
[18] = system: IGROV-1
[19] = system: K562
[20] = system: KM-20L2
[21] = system: KM12
[22] = system: LOX IMVI
[23] = system: M19-MEL
[24] = system: MCF7
[25] = system: MOLT-4
[26] = system: NCI-H226
[27] = system: NCI-H23
[28] = system: NCI-H460
[29] = system: NCI-H522
[30] = system: NCI/ADR-RES
[31] = system: OVCAR-3
[32] = system: OVCAR-4
[33] = system: OVCAR-5
[34] = system: OVCAR-8
[35] = system: RPMI-8226
[36] = system: RXF 393
[37] = system: SF-268
[38] = system: SF-295
[39] = system: SF-539
[40] = system: SK-MEL-28
[41] = system: SK-MEL-2
[42] = system: SK-MEL-5
[43] = system: SK-OV-3
[44] = system: SN12C
[45] = system: SNB-19
[46] = system: SNB-75
[47] = system: SNB-78
[48] = system: SW-620
[49] = system: U-251
[50] = system: UACC-257
[51] = system: UACC-62
[52] = system: UO-31
[53] = system: XF498

COc1ccc(-c2nc3ccc([N+](=O)[O-])cc3c(=O)[nH]2)cc1
GI50 [1]: 29.3 µM (inactive)
GI50 [2]: 53.2 µM (inactive)
GI50 [3]: 28.8 µM (inactive)
GI50 [4]: > 100 µM (inactive)
GI50 [5]: > 100 µM (inactive)
GI50 [6]: 88.3 µM (inactive)
GI50 [7]: 33 µM (inactive)
GI50 [8]: 48.4 µM (inactive)
GI50 [9]: 66.1 µM (inactive)
GI50 [10]: > 100 µM (inactive)
GI50 [11]: 27.4 µM (inactive)
GI50 [12]: > 100 µM
GI50 [13]: > 100 µM (inactive)
GI50 [14]: > 62.4 µM (inactive)
GI50 [15]: > 45.6 µM (inactive)
GI50 [16]: 22 µM (inactive)
GI50 [17]: > 100 µM (inactive)
GI50 [18]: 25.1 µM (inactive)
GI50 [19]: > 100 µM (inactive)
GI50 [20]: > 100 µM (inactive)
GI50 [21]: > 100 µM (inactive)
GI50 [22]: 30.5 µM (inactive)
GI50 [23]: > 100 µM (inactive)
GI50 [24]: 46.5 µM (inactive)
GI50 [25]: > 100 µM (inactive)
GI50 [26]: 23.2 µM (inactive)
GI50 [27]: 29.3 µM (inactive)
GI50 [28]: > 80 µM (inactive)
GI50 [29]: 26.9 µM (inactive)
GI50 [30]: 34 µM (inactive)
GI50 [31]: 28.4 µM (inactive)
GI50 [32]: 12.9 µM (inactive)
GI50 [33]: > 100 µM (inactive)
GI50 [34]: 21.1 µM (inactive)
GI50 [35]: > 61.4 µM (inactive)
GI50 [36]: 26.4 µM (inactive)
GI50 [37]: 20.4 µM (inactive)
GI50 [38]: 23.8 µM (inactive)
GI50 [39]: 14.5 µM (inactive)
GI50 [40]: > 100 µM (inactive)
GI50 [41]: 30.3 µM (inactive)
GI50 [42]: > 100 µM (inactive)
GI50 [43]: 13.6 µM (inactive)
GI50 [44]: 66.4 µM (inactive)
GI50 [45]: 20.4 µM (inactive)
GI50 [46]: 12.7 µM (inactive)
GI50 [47]: 19.9 µM (inactive)
GI50 [48]: > 100 µM (inactive)
GI50 [49]: 24.6 µM (inactive)
GI50 [50]: > 96.2 µM (inactive)
GI50 [51]: 37.7 µM (inactive)
GI50 [52]: 61.9 µM (inactive)
GI50 [53]: 22.7 µM (inactive)
